Experimental data taken from PMC12472551, “Comprehensive Identification and Mechanistic Evaluation of Novel DHODH Inhibitors as Potent Broad-Spectrum Antiviral Agents” (Pharmaceuticals, 2025).
Like-named read-outs stand apart in the source and are kept apart here.

Legend:
human lung organoids = details: viral replication in human lung organoids; cited from earlier work
[1] = system: influenza A virus (A/PR/8/34(H1N1)); assay: microbe, parasite or virus in culture; assay type: cell-based
[2] = MTT cytotoxicity assay in MDCK cells; assay type: cell-based, Canine; details: dog
Description: (§1) The cytotoxic effects of the test compounds on MDCK and Vero cell lines were evaluated utilizing the 3-(4,5-dimethylthiazol-2-yl)-2,5-diphenyltetrazolium bromide (MTT) assay. In brief, cells were seeded in 96-well plates and maintained in complete growth medium. After an overnight incubation period, this medium was aspirated and replaced with serum-free DMEM containing the compounds at predetermined concentrations. After 48 h of treatment, MTT dissolved in PBS was introduced into each well to achieve a final concentration of 0.5 mg/mL. Subsequent incubation at 37 °C for 2 h facilitated formazan crystal formation. The medium was then aspirated, and DMSO was added to solubilize the formazan crystals. Absorbance measurements at 540 nm were conducted using a CLARIOstar microplate reader.

SARS-CoV-2 = assay: microbe, parasite or virus in culture; assay type: cell-based; details: Severe acute respiratory syndrome coronavirus 2
human DHODH = human DHODH (Homo sapiens, UniProt Q02127); assay: Surface plasmon resonance binding
Sequence of human DHODH (Q02127 whole entry): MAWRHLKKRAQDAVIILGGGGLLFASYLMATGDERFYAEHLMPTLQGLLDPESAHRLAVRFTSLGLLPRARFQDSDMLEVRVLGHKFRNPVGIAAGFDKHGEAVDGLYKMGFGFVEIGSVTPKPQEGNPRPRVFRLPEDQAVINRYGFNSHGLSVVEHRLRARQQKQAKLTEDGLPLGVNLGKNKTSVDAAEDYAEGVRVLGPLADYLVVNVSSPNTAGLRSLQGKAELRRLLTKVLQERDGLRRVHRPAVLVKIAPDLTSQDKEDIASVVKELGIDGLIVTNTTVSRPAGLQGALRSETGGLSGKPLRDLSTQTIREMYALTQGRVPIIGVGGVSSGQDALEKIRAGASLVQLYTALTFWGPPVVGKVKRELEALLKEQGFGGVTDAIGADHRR

[3] = MTT cytotoxicity assay in Vero cells; assay type: cell-based; details: African green monkey, Vero-ACE2-TMPRSS2 cells
Description: A Vero-ACE2-TMPRSS2 (labelled ‘Vero’ hereafter) cell line was used for SARS-CoV-2.
as §1

DHODH = details: cited from earlier work
[4] = read-out: CC50 (hematological toxicity); cited from earlier work
DENV and ZIKV viruses = system: DENV and ZIKV viruses; set-up: method as in PMID 33716051; details: cited from earlier work
[5] = Influenza A virus, MDCK, A/PR/8/34(H1N1), MDCK cells, plaque reduction, read-out: IC50
[6] = SARS-CoV-2, Vero-ACE2-TMPRSS2 cells, plaque assay, read-out: IC50

Row | Structure (SMILES) | IC50 [1, 5] | IC50 ([1]; Influenza A virus, MDCK) | CC50 at 48 h [2] | IC50 (SARS-CoV-2; [6]) | CC50 at 48 h [3] | also measured
1 | CCn1c(CO)nn(-c2cc(O[C@@H](C)C(F)(F)F)c(C(=O)Nc3c(F)cccc3Cl)cc2F)c1=O [BAY 2402234] | – | – | – | – | – | EC50 (human lung organoids): 0.032 µM
2 | COC(=O)OCOc1c2n(ccc1=O)N([C@@H]1c3ccccc3SCc3c1ccc(F)c3F)[C@@H]1COCCN1C2=O [Baloxavir marboxil, reference compound] | 0.00967 ± 0.00112 µM | – | – | – | – | –
3 | CC1(c2ccccc2)CC(C)(C)N(C(=O)CSc2nc(O)cc(CSc3ccc(Cl)cc3)n2)c2ccccc21 (centres unmarked) [Compound 1] | – | 36.8 ± 2.36 µM | 34.5 ± 1.58 µM | – | – | –
4 | O=C(CCCCCn1c(=O)c2sccc2n(CC(=O)NCCC2=CCCCC2)c1=O)NCc1ccc(F)cc1 [Compound 2] | – | > 200 µM | > 200 µM | – | – | –
5 | COC(=O)c1ccc(NC(=O)CSc2nc(-c3sc(-c4ccccc4)nc3C)cc(=O)[nH]2)cc1 [Compound 3] | – | > 200 µM | > 200 µM | – | – | –
6 | CCCCc1nn2c(=O)cc(CSc3nc4ccc(NC(C)=O)cc4s3)nc2s1 [Compound 4] | – | 66.2 ± 6.29 µM | > 200 µM | – | – | –
7 | O=C(COc1ccccc1)Nc1ccc(N2CCN(c3ccccc3F)CC2)cc1C(=O)O [Compound 5] | – | > 200 µM | > 200 µM | – | – | –
8 | CC(=O)c1ccc(N2CCN(C(=O)c3cc4c(=O)n(C)c5ccccc5c4s3)CC2)cc1 [Compound 6] | – | 4.85 ± 0.58 µM | > 200 µM | – | – | –
9 | O=C(Cc1cccs1)Nc1ccc(N2CCN(c3ccccc3Cl)CC2)cc1C(=O)O [Compound 7] | – | 17.2 ± 1.19 µM | > 200 µM | – | – | –
10 | CN1C(=O)c2ccccc2Sc2cc(-c3noc(CNC(=O)Cc4ccc(Cl)cc4)n3)ccc21 [Compound 8] | – | 13.4 ± 2.45 µM | > 200 µM | – | – | –
11 | Cc1ccc(-c2onc3ccc(-c4cc(C(=O)O)c5ccccc5n4)cc23)cc1 [Compound 9] | – | 7.35 ± 1.65 µM | > 200 µM | – | – | –
12 | Cc1ccc(-c2onc3ccc(-c4cc(C(=O)O)c5cc(C)ccc5n4)cc23)cc1 [Compound 10] | – | 1.75 ± 0.28 µM | > 200 µM | – | – | –
13 | Cc1cc2nc(C)c(C(=O)O)n2cc1-c1ccc(-c2ccccc2)cc1 [Compound 11, 6-([1,1′-Biphenyl]-4-yl)-2,7-dimethylimidazo[1,2-a]pyridine-3-carboxylic acid] | 0.85 ± 0.05 µM | – | > 200 µM | 3.6 ± 0.67 µM | > 200 µM | kon (human DHODH; read-out: Ka, association constant): 4.83e+06 M⁻¹ s⁻¹; koff (human DHODH; read-out: Kdis, dissociation constant): 29.3 s⁻¹
14 | Cc1nc2ccc(-c3ccc(-c4ccccc4)cc3)cn2c1C(=O)O [Compound 12, 6-([1,1′-Biphenyl]-4-yl)-2-methylimidazo[1,2-a]pyridine-3-carboxylic acid] | > 100 µM | – | > 200 µM | > 200 µM | > 200 µM | IC50 ([1]; A/PR/8/34(H1N1), MDCK cells, plaque reduction, read-out: IC50): 100 ± 1.13 µM
15 | Cc1nc2ncc(-c3ccc(-c4ccccc4)cc3)cn2c1C(=O)O [Compound 13, 6-([1,1′-Biphenyl]-4-yl)-2-methylimidazo [1,2-a]pyrimidine-3-carboxylic acid] | 1.08 ± 0.26 µM | – | > 200 µM | 105 ± 5.19 µM | > 200 µM | –
16 | CCOC(=O)c1c(C)nc2ccc(-c3ccc(-c4ccccc4)cc3)cn12 [Compound 14, Ethyl 6-([1,1′-biphenyl]-4-yl)-2-methylimidazo[1,2-a]pyridine-3-carboxylate] | > 200 µM | – | > 200 µM | > 200 µM | > 200 µM | –
17 | CCOC(=O)c1c(C)nc2cc(C)c(-c3ccc(-c4ccccc4)cc3)cn12 [Compound 15, Ethyl 6-([1,1′-biphenyl]-4-yl)-2,7-dimethylimidazo[1,2-a]pyridine-3-carboxylate] | > 200 µM | – | > 200 µM | > 200 µM | > 200 µM | –
18 | CCOC(=O)c1c(C)nc2ncc(-c3ccc(-c4ccccc4)cc3)cn12 [Compound 16, Ethyl 6-([1,1′-biphenyl]-4-yl)-2-methylimidazo[1,2-a]pyrimidine-3-carboxylate] | > 200 µM | – | > 200 µM | > 200 µM | > 200 µM | –
19 | C/C(O)=C(\C#N)C(=O)Nc1ccc(C(F)(F)F)cc1 [Compound 17, teriflunomide, reference compound] | 35 ± 3.33 µM | – | 181 ± 16.4 µM | 26.1 ± 4.32 µM | > 200 µM | IC50 (DHODH; competing with ubiquinone, read-out: IC50 (DHODH inhibition)): […]
20 | Cc1c(-c2ccc(-c3ccccc3F)cc2)nc2ccc(F)cc2c1C(=O)O [Compound 18, brequinar] | – | – | – | – | – | CC50 [4]: > 5 µM; Ka, association constant (human DHODH; SPR): 1.31 × 10^6 M^−1S^−1; EC50 (DENV and ZIKV viruses): 0.017 to 0.061 µM
21 | CCC(CC)COC(=O)[C@H](C)N[P@](=O)(OC[C@H]1O[C@@](C#N)(c2ccc3c(N)ncnn23)[C@H](O)[C@@H]1O)Oc1ccccc1 [Remdesivir, reference compound] | – | – | – | – | – | IC50 (SARS-CoV-2): 4.95 ± 0.78 µM
22 | COc1cccc(-c2ccc(NC(=O)C3=C(C(=O)O)CCC3)c(F)c2)c1 [vidofludimus] | – | – | – | – | – | IC50 (DHODH; enhanced selectivity, read-out: IC50): 0.041 to 0.16 µM
